Assay results: patent US20210032257A1, “(E)-1-(4-(DIMETHYLAMINO)BUT-2-ENOYL)PYRROLIDIN-3-YL 4-((3-ISOPROPYL-5-METHYLPYRAZOLO[1,5-A]PYRIMIDIN-7-YL)AMINO)PIPERIDINE-1-CARBOXYLATE FOR INHIBITING CDK7” (Eli Lilly and Company, priority 2017, published 2021)

How the values were obtained:
Assay in all cases: Biomarker study proliferation (CellTiter-Glo)
Format in all cases: cell-based
TCCSUP = test system: TCCSUP
In short: (§1)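 Cells seeded at 5000/well, incubated overnight at 37 °C, 5% CO2, then treated with 10-point 1:3 dilutions from a 10 mM DMSO working solution. After 7 days, ATP luminescence was read by CellTiter-Glo. Classed insensitive (IC50≥1 μM), cytostatic (IC50<1 μM, inhibition <70%) or cytotoxic (IC50<1 μM, inhibition ≥70%).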

IGROV1 = test system: IGROV1
In short: as §1

EVSAT = test system: EVSAT
In short: as §1

NCIH526 = test system: NCIH526
In short: as §1

KPL1 = test system: KPL1
In short: as §1

NCIH441 = test system: NCIH441
In short: as §1

NCIH1666 = test system: NCIH1666
In short: as §1

MOLT4 = test system: MOLT4
In short: as §1

SJRH30 = test system: SJRH30
In short: as §1

NCIH1048 = test system: NCIH1048
In short: as §1

HEP3B217 = test system: HEP3B217
In short: as §1

HEC108 = test system: HEC108
In short: as §1

KYSE30 = test system: KYSE30
In short: as §1

THP1 = test system: THP1
In short: as §1

SNU869 = test system: SNU869
In short: as §1

NCIH460 = test system: NCIH460
In short: as §1

RKO = test system: RKO
In short: as §1

DMS273 = test system: DMS273
In short: as §1

[1] = 168 h, read-out: Anti-proliferation effect IC50

Compound: Cc1cc(NC2CCN(C(=O)O[C@H]3CCN(C(=O)/C=C/CN(C)C)C3)CC2)n2ncc(C(C)C)c2n1 [Example 1, [(3S)-1-[(E)-4-(dimethylamino)but-2-enoyl]pyrrolidin-3-yl] 4-[(3-isopropyl-5-methyl-pyrazolo[1,5-a]pyrimidin-7-yl)amino]piperidine-1-carboxylate]
- IC50 (TCCSUP; Homo sapiens, TCC-SUP, 168 h, read-out: Anti-proliferation effect IC50): 40 nM
- Anti-proliferation effect % Inh. (TCCSUP; TCCSUP, URINARY, 7 days): 61%
- Anti-proliferation effect Outcome (TCCSUP; TCCSUP, URINARY, 7 days): Cytostatic (cytostatic (IC50<1 μM and % inhibition <70%))
- IC50 (IGROV1; Homo sapiens, IGROV-1, 168 h, read-out: Anti-proliferation effect IC50): 72 nM
- Anti-proliferation effect % Inh. (IGROV1; IGROV1, OVARY, 7 days): 70%
- Anti-proliferation effect Outcome (IGROV1; IGROV1, OVARY, 7 days): Cytotoxic (cytotoxic (IC50<1 μM and % inhibition ≥70%))
- Anti-proliferation effect % Inh. (EVSAT; EVSAT, BREAST, 7 days): 79%
- Anti-proliferation effect Outcome (EVSAT; EVSAT, BREAST, 7 days): Cytotoxic (cytotoxic (IC50<1 μM and % inhibition ≥70%))
- IC50 (EVSAT; Homo sapiens, EVSA-T, 168 h, read-out: Anti-proliferation effect IC50): 40 nM
- IC50 (NCIH526; Homo sapiens, NCI-H526, 168 h, read-out: Anti-proliferation effect IC50): 18 nM
- Anti-proliferation effect % Inh. (NCIH526; NCIH526, LUNG, 7 days): 94%
- Anti-proliferation effect Outcome (NCIH526; NCIH526, LUNG, 7 days): Cytotoxic (cytotoxic (IC50<1 μM and % inhibition ≥70%))
- Anti-proliferation effect % Inh. (KPL1; KPL1, BREAST, 7 days): 43%
- Anti-proliferation effect Outcome (KPL1; KPL1, BREAST, 7 days): Cytostatic (cytostatic (IC50<1 μM and % inhibition <70%))
- IC50 (KPL1; KPL-1, 168 h, read-out: Anti-proliferation effect IC50): 668 nM
- IC50 (NCIH441; Homo sapiens, NCI-H441, 168 h, read-out: Anti-proliferation effect IC50): 14 nM
- Anti-proliferation effect % Inh. (NCIH441; NCIH441, LUNG, 7 days): 84%
- Anti-proliferation effect Outcome (NCIH441; NCIH441, LUNG, 7 days): Cytotoxic (cytotoxic (IC50<1 μM and % inhibition ≥70%))
- IC50 (NCIH1666; Homo sapiens, NCI-H1666, 168 h, read-out: Anti-proliferation effect IC50): 161 nM
- Anti-proliferation effect % Inh. (NCIH1666; NCIH1666, LUNG, 7 days): 59%
- Anti-proliferation effect Outcome (NCIH1666; NCIH1666, LUNG, 7 days): Cytostatic (cytostatic (IC50<1 μM and % inhibition <70%))
- IC50 (MOLT4; Homo sapiens, MOLT-4, 168 h, read-out: Anti-proliferation effect IC50): 40 nM
- Anti-proliferation effect % Inh. (MOLT4; MOLT4, BLOOD, 7 days): 99%
- Anti-proliferation effect Outcome (MOLT4; MOLT4, BLOOD, 7 days): Cytotoxic (cytotoxic (IC50<1 μM and % inhibition ≥70%))
- IC50 (SJRH30; Homo sapiens, SJRH30, 168 h, read-out: Anti-proliferation effect IC50): 39 nM
- Anti-proliferation effect % Inh. (SJRH30; SJRH30, SOFT TISSUE, 7 days): 62%
- Anti-proliferation effect Outcome (SJRH30; SJRH30, SOFT TISSUE, 7 days): Cytostatic (cytostatic (IC50<1 μM and % inhibition <70%))
- IC50 (NCIH1048; Homo sapiens, NCI-H1048, 168 h, read-out: Anti-proliferation effect IC50): 4 nM
- Anti-proliferation effect % Inh. (NCIH1048; NCIH1048, LUNG, 7 days): 95%
- Anti-proliferation effect Outcome (NCIH1048; NCIH1048, LUNG, 7 days): Cytotoxic (cytotoxic (IC50<1 μM and % inhibition ≥70%))
- IC50 (HEP3B217; [1]): 33 nM
- Anti-proliferation effect % Inh. (HEP3B217; HEP3B217, LIVER, 7 days): 66%
- Anti-proliferation effect Outcome (HEP3B217; HEP3B217, LIVER, 7 days): Cytostatic (cytostatic (IC50<1 μM and % inhibition <70%))
- IC50 (HEC108; [1]): 31 nM
- Anti-proliferation effect % Inh. (HEC108; HEC108, ENDOMETRIUM, 7 days): 90%
- Anti-proliferation effect Outcome (HEC108; HEC108, ENDOMETRIUM, 7 days): Cytotoxic (cytotoxic (IC50<1 μM and % inhibition ≥70%))
- IC50 (KYSE30; Homo sapiens, KYSE-30, 168 h, read-out: Anti-proliferation effect IC50): 76 nM
- Anti-proliferation effect % Inh. (KYSE30; KYSE30, OESOPHAGUS, 7 days): 76%
- Anti-proliferation effect Outcome (KYSE30; KYSE30, OESOPHAGUS, 7 days): Cytotoxic (cytotoxic (IC50<1 μM and % inhibition ≥70%))
- IC50 (THP1; Homo sapiens, THP-1, 168 h, read-out: Anti-proliferation effect IC50): 42 nM
- Anti-proliferation effect % Inh. (THP1; THP1, BLOOD, 7 days): 81%
- Anti-proliferation effect Outcome (THP1; THP1, BLOOD, 7 days): Cytotoxic (cytotoxic (IC50<1 μM and % inhibition ≥70%))
- IC50 (SNU869; [1]): 52 nM
- Anti-proliferation effect % Inh. (SNU869; SNU869, BILIARY, 7 days): 60%
- Anti-proliferation effect Outcome (SNU869; SNU869, BILIARY, 7 days): Cytostatic (cytostatic (IC50<1 μM and % inhibition <70%))
- IC50 (NCIH460; Homo sapiens, NCI-H460, 168 h, read-out: Anti-proliferation effect IC50): 47 nM
- Anti-proliferation effect % Inh. (NCIH460; NCIH460, LUNG, 7 days): 97%
- Anti-proliferation effect Outcome (NCIH460; NCIH460, LUNG, 7 days): Cytotoxic (cytotoxic (IC50<1 μM and % inhibition ≥70%))
- IC50 (RKO; Homo sapiens, 168 h, read-out: Anti-proliferation effect IC50): 118 nM
- Anti-proliferation effect % Inh. (RKO; INTESTINE, 7 days): 61%
- Anti-proliferation effect Outcome (RKO; INTESTINE, 7 days): Cytostatic (cytostatic (IC50<1 μM and % inhibition <70%))
- Anti-proliferation effect % Inh. (DMS273; DMS273, LUNG, 7 days): 80%
- Anti-proliferation effect Outcome (DMS273; DMS273, LUNG, 7 days): Cytotoxic (cytotoxic (IC50<1 μM and % inhibition ≥70%))
- IC50 (DMS273; Homo sapiens, DMS-273, 168 h, read-out: Anti-proliferation effect IC50): 19 nM
